Assay results reported in ChEMBL document CHEMBL1136792, “Synthesis of chiral 1-[omega-(4-chlorophenoxy)alkyl]-4-methylpiperidines and their biological evaluation at sigma1, sigma2, and sterol delta8-delta7 isomerase sites” (J Med Chem, 2003).

Tests used:
[1] = target: T1, 3-beta-hydroxysteroid-Delta(8),Delta(7)-isomerase (Cavia porcellus, UniProt Q60490); test: Inhibition of [3H]-emopamil binding to Sterol delta 8-delta 7 isomerase in guinea pig liver membrane; assay type: cell membranes
T1 sequence (Q60490 whole entry): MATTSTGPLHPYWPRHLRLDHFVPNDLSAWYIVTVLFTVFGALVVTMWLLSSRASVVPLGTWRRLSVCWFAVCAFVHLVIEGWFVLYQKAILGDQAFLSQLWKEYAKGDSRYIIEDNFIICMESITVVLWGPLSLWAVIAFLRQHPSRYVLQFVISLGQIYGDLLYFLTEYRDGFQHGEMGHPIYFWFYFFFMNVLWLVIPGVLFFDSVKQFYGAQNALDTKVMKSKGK

[2] = target: Sigma 2 receptor; test: Inhibition of [3H]DTG binding to Sigma receptor type 2 in rat liver membrane; assay type: cell membranes
[3] = target: Sigma non-opioid intracellular receptor 1 (Homo sapiens) (UniProt Q99720); test: Relative affinity for sigma-2 over sigma-1 receptors
Chain of Sigma non-opioid intracellular receptor 1 (Homo sapiens) (Q99720 whole entry): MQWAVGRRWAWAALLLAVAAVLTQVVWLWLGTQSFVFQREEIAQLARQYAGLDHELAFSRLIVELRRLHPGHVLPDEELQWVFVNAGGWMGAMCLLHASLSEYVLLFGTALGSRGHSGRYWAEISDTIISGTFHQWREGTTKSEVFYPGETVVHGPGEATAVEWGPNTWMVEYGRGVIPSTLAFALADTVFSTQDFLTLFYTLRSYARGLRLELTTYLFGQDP

[4] = species: Cavia porcellus; test: Relative affinity for sterol delta-(8)-delta-(7) isomerase over sigma-1 receptor

Ki [1]	Ki [2]	Ratio [3]	Ratio [4]	Compound
27.5 nM	52.3 nM	44	23	CC1CCN([C@H](C)COc2ccc(Cl)cc2)CC1
3.38 nM	318 nM			CC1CCN(C[C@@H](C)Oc2ccc(Cl)cc2)CC1
	554 nM			C(/C=C/c1ccc2c(c1)OCO2)=C\CN1CCCCC1
12 nM	65.9 nM			CC1CCN(CC[C@H](C)Oc2ccc(Cl)cc2)CC1
9.65 nM	38.6 nM			CC1CCN(CCCOc2ccc(Cl)cc2)CC1
3.7 nM	239 nM			CC1CCN(CCOc2ccc(Cl)cc2)CC1
35.1 nM	332 nM			CC1CCN(C[C@H](C)Oc2ccc(Cl)cc2)CC1
3.73 nM	186 nM	547	11	CC1CCN([C@@H](C)COc2ccc(Cl)cc2)CC1
30.1 nM	13.9 nM			CC1CCN(CC[C@@H](C)Oc2ccc(Cl)cc2)CC1
7.79 nM	15.1 nM			CC1CCN([C@H](C)CCOc2ccc(Cl)cc2)CC1
2.71 nM				CC(C(O)c1ccc(O)cc1)N1CCC(Cc2ccccc2)CC1 (racemic) [IFENPRODIL]
18.7 nM	62 nM	36	11	CC1CCN(C[C@@H](C)COc2ccc(Cl)cc2)CC1
14.5 nM	40.8 nM	37	13	CC1CCN(C[C@H](C)COc2ccc(Cl)cc2)CC1
37 nM	31.6 nM			CC1CCN([C@@H](C)CCOc2ccc(Cl)cc2)CC1
